Laboratory results from article PMC10258454 (Nature, 2021).

Tests used:
AcbK [1] = molecular target: T1, AcbK (Actinoplanes sp. SE50/110, UniProt Q8RMD4); experiment: X-ray crystallography, […] Å; assay type: binding; conditions: ATP site; MnCl2, acarbose present
AcbK [2] = molecular target: T1, AcbK; conditions: 2 mM ATP as phosphate donor, MgCl2, pH 8, 37 °C
[3] = molecular target: T2, human salivary amylase (HSA) (Homo sapiens, UniProt P0DUB6); experiment: colorimetric amylase assay, […] nm; assay type: biochemical; conditions: 30 °C
T2 sequence (P0DUB6 16-511): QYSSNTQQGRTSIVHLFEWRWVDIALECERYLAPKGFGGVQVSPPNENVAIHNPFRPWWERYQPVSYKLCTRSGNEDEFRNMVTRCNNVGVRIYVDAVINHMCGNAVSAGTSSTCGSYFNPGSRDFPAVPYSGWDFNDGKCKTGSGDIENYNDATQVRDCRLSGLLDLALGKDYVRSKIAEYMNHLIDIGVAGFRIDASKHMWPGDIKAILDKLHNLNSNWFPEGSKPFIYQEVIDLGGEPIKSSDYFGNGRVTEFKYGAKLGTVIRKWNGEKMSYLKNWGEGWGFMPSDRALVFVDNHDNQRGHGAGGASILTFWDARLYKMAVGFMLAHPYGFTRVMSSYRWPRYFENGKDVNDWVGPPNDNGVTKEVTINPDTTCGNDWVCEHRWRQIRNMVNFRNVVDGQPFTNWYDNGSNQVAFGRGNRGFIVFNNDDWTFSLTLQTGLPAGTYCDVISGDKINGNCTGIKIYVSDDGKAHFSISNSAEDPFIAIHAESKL

[4] = molecular target: T3, porcine pancreatic amylase (PPA) (Sus scrofa, UniProt P00690); experiment: colorimetric amylase assay, […] nm; assay type: biochemical; conditions: 30 °C
T3 sequence (P00690 16-511): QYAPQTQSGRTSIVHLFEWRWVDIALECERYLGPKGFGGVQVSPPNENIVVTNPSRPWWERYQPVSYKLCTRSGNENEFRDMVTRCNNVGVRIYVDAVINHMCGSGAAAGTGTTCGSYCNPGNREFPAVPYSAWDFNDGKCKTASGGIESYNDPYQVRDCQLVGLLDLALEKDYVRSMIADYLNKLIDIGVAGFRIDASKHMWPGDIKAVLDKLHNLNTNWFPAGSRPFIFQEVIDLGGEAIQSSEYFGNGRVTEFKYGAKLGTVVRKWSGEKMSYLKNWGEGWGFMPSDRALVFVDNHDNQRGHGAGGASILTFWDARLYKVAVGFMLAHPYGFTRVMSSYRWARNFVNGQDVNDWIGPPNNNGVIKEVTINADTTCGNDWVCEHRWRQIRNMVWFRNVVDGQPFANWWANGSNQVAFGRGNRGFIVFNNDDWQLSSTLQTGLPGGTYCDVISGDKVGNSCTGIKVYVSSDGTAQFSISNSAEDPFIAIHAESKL

crystal structure = molecular target: the molecule itself; experiment: crystal structure

Nc1ncnc2c1ncn2[C@@H]1O[C@H](COP(=O)(O)OP(=O)(O)NP(=O)(O)O)[C@@H](O)[C@H]1O [AMP-PNP]
X-ray crystallography, 2.4 Å (AcbK [1]): crystal structure of AcbK bound to acarbose and a non-hydrolysable ATP analogue, adenylyl-imidodiphosphate (AMP-PNP)

Nc1ncnc2c1ncn2[C@@H]1O[C@H](COP(=O)(O)OP(=O)(O)OP(=O)(O)O)[C@@H](O)[C@H]1O [ATP]
HPLC-MS of acarbose phosphorylation (AcbK [2]): we incubated the resulting proteins with ATP and acarbose

CC1OC[C@H]2O[C@H](O[C@H]3[C@H](O)[C@@H](O)[C@@H](O[C@H]4[C@H](O)[C@@H](O)[C@@H](O[C@H]5[C@H](O)[C@@H](O)[C@@H](O[C@H]6[C@H](O)[C@@H](O)[C@@H](O[C@H]7[C@H](O)[C@@H](O)[C@@H](O[C@H]8[C@H](O)[C@@H](O)[C@@H](Oc9ccc([N+](=O)[O-])cc9)O[C@@H]8CO)O[C@@H]7CO)O[C@@H]6CO)O[C@@H]5CO)O[C@@H]4CO)O[C@@H]3CO)[C@H](O)[C@@H](O)[C@@H]2O1 (stereo partly drawn) [ethylidene-pNP-G7]
colorimetric amylase assay, 405 nm [3]: cleavage of an oligosaccharide substrate mimic (ethylidene-pNP-G7) | colorimetric amylase assay, 405 nm [4]: cleavage of an oligosaccharide substrate mimic (ethylidene-pNP-G7)

B1: AcbK (acarbose kinase of Actinoplanes sp. SE50/110) (enzyme, UniProt Q8RMD4 1-299, looked up)
chain: MSEHTDVLVLGGAGVDTIAYVPELPLPFQDSYVVAAIEPRAGQTGDNVALGLHTLGLRTMHVDVLGDDPEGDLVRAFHTRHGLPFAALPTAAGTKRAVNLVGPDGRRLSLWDGSREAEEDRYPAALIAAHTAHARHVHVCITPPGQHVFGQLNDLPVTVSTDLHNWDGAYEGFEVYAFNADLVFLSATALTDVAATMRRVIDRGRARLVVATDGAHGGSVLVRGETEVRRYAAVAPEAPVVDSNGAGDAFVSGFLFGHLAGEPLETCLRYGAIAGAYACTIPATRAGAIDRAALLRPAA
stoichiometry N (crystal structure): 2

B2: Mak1 (microbiome-derived acarbose kinase 1) (enzyme)
chain: MTQADVLVVGGVGVDHIVRVKSLPLPVVDSMMVPPIVTVVGHTGNGVALGVHALGRASAMADVIGDDAEGRLIQDAYSAAGIPITFVTHISGTRRSVNLVTEEGQRMSLYDPRHPFEFIPDPSLWREGIERSRHVHVSIMNWARYALRDAVAAGRSTSTDLHDWDGVADYHKDFAYGADYVFVSAAALRDESGVVADVFARGRAQFVVVMAGSEGARVWRRSDELPLRISPISIPGRPVVDSNGAGDSFVAAFLCHYLDHGDIFGAARAGAVGGAWACGTLGTHTSFVDVETLERLLAR
stoichiometry N (crystal structure): 2
